Data published in ChEMBL document CHEMBL1145844 (J Med Chem, 2003).
pEC50, pKi: −log10 of the molar value.

target: T1, Delta-type opioid receptor (Homo sapiens, UniProt P41143); test: Agonistic activity towards Opioid receptor delta 1; format: functional
T1 sequence (P41143 whole entry): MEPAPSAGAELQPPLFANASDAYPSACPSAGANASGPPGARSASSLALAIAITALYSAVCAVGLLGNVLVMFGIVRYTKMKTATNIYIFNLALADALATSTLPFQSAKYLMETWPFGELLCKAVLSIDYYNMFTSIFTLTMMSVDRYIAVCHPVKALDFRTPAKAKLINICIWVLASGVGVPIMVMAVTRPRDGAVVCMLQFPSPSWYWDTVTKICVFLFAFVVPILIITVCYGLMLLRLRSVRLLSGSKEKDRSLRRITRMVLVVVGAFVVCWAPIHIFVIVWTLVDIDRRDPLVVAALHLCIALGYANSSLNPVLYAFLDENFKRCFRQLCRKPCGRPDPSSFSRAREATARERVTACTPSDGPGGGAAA

| SMILES | pEC50 |
| --- | --- |
| COc1ccc2c(c1O)[C@]13CCN(C)C(C2)[C@@]12C/C(=C\c1ccccc1)[C@@H]3c1[nH]c3ccccc3c1C2 | 7.37 |
| CC(C)=CC[C@@]12Cc3c([nH]c4ccccc34)[C@]3(C)Oc4c(O)ccc5c4[C@]13CCN(C)C2C5 | 7.05 |
| C/C=C1\C[C@@]23Cc4c([nH]c5ccccc45)[C@@H]1[C@@]21CCN(C)C3Cc2ccc(OC)c(O)c21 | 6.66 |
| COc1ccc2c(c1O)[C@]13CCN(C)C(C2)[C@]12CCC(=O)[C@H]3/C(=C(\C)c1ccccc1)C2 | 7.14 |

target: T2, Mu-type opioid receptor (Homo sapiens, UniProt P35372); test: % stimulation of [35S]GTP-gamma-S, binding in recombinant human Opioid receptor mu 1 transfected into CHO cells; format: functional, cell-based
T2 sequence (P35372 whole entry): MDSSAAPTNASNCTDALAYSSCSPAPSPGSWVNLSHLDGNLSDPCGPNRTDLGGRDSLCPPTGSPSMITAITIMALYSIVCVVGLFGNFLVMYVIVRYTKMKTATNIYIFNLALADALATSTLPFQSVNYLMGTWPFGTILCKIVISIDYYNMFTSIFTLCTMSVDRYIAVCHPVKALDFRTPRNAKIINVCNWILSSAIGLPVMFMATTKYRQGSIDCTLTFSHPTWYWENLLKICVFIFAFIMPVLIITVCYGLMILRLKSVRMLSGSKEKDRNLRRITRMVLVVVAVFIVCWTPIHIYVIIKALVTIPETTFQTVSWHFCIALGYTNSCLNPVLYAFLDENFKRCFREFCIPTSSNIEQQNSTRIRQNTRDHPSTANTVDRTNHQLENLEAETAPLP

| SMILES | Stimulation [%] |
| --- | --- |
| COc1ccc2c(c1O)[C@]13CCN(C)C(C2)[C@@]12C/C(=C\c1ccccc1)[C@@H]3c1[nH]c3ccccc3c1C2 | 110 |
| CC(C)=CC[C@@]12Cc3c([nH]c4ccccc34)[C@]3(C)Oc4c(O)ccc5c4[C@]13CCN(C)C2C5 | 72 |
| C/C=C1\C[C@@]23Cc4c([nH]c5ccccc45)[C@@H]1[C@@]21CCN(C)C3Cc2ccc(OC)c(O)c21 | 41 |
| COc1ccc2c(c1O)[C@]13CCN(C)C(C2)[C@]12CCC(=O)[C@H]3/C(=C(\C)c1ccccc1)C2 | 108 |

target: T3, Kappa-type opioid receptor (Homo sapiens, UniProt P41145); test: Agonistic activity towards opioid receptor kappa 1; format: functional
T3 sequence (P41145 whole entry): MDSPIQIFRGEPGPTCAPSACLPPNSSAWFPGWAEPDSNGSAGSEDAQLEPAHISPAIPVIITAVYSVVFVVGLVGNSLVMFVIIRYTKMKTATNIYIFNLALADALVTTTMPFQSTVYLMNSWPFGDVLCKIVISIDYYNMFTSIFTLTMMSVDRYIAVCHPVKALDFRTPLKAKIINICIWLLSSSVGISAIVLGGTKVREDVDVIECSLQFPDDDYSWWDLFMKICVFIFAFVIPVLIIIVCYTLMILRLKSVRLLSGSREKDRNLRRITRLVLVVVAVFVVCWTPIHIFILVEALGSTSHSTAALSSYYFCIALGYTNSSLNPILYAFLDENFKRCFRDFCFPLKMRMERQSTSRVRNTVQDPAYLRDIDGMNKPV

| SMILES | pEC50 |
| --- | --- |
| C/C=C1\C[C@@]23Cc4c([nH]c5ccccc45)[C@@H]1[C@@]21CCN(C)C3Cc2ccc(OC)c(O)c21 | 5.66 |

target: T3, Kappa-type opioid receptor; test: % stimulation of [35S]GTP-gamma-S, binding of compound in recombinant human Opioid receptor kappa 1 transfected into CHO cells; format: functional, cell-based

| SMILES | Stimulation [%] |
| --- | --- |
| COc1ccc2c(c1O)[C@]13CCN(C)C(C2)[C@@]12C/C(=C\c1ccccc1)[C@@H]3c1[nH]c3ccccc3c1C2 | 83 |
| CC(C)=CC[C@@]12Cc3c([nH]c4ccccc34)[C@]3(C)Oc4c(O)ccc5c4[C@]13CCN(C)C2C5 | 31 |
| C/C=C1\C[C@@]23Cc4c([nH]c5ccccc45)[C@@H]1[C@@]21CCN(C)C3Cc2ccc(OC)c(O)c21 | 36 |
| COc1ccc2c(c1O)[C@]13CCN(C)C(C2)[C@]12CCC(=O)[C@H]3/C(=C(\C)c1ccccc1)C2 | 116 |

target: T1, Delta-type opioid receptor; test: % stimulation of [35S]GTP-gamma-S, binding in recombinant human Opioid receptor delta 1 transfected into CHO cells; format: functional, cell-based

| SMILES | Stimulation [%] |
| --- | --- |
| COc1ccc2c(c1O)[C@]13CCN(C)C(C2)[C@@]12C/C(=C\c1ccccc1)[C@@H]3c1[nH]c3ccccc3c1C2 | 87 |
| CC(C)=CC[C@@]12Cc3c([nH]c4ccccc34)[C@]3(C)Oc4c(O)ccc5c4[C@]13CCN(C)C2C5 | 43 |
| COc1ccc2c(c1O)[C@]13CCN(C)C(C2)[C@]12CCC(=O)[C@H]3/C(=C(\C)c1ccccc1)C2 | 108 |

target: Opioid receptors; mu & delta (Homo sapiens, UniProt P41143+P35372); test: Ratio of mu/delta-opioid receptors Binding affinity; format: protein assay

| SMILES | Ki |
| --- | --- |
| COc1ccc2c(c1O)[C@]13CCN(C)C(C2)[C@@]12C/C(=C\c1ccccc1)[C@@H]3c1[nH]c3ccccc3c1C2 | 0.4 |
| CC(C)=CC[C@@]12Cc3c([nH]c4ccccc34)[C@]3(C)Oc4c(O)ccc5c4[C@]13CCN(C)C2C5 | 4.9 |
| C/C=C1\C[C@@]23Cc4c([nH]c5ccccc45)[C@@H]1[C@@]21CCN(C)C3Cc2ccc(OC)c(O)c21 | 1.5 |
| COc1ccc2c(c1O)[C@]13CCN(C)C(C2)[C@]12CCC(=O)[C@H]3/C(=C(\C)c1ccccc1)C2 | 0.8 |

target: T2, Mu-type opioid receptor; test: Binding affinity for human Opioid receptor mu 1 transfected into chinese hamster ovary cells by displacing [3H]DAMGO radioligand; format: cell-based

| SMILES | pKi |
| --- | --- |
| COc1ccc2c(c1O)[C@]13CCN(C)C(C2)[C@@]12C/C(=C\c1ccccc1)[C@@H]3c1[nH]c3ccccc3c1C2 | 8.20 |
| CC(C)=CC[C@@]12Cc3c([nH]c4ccccc34)[C@]3(C)Oc4c(O)ccc5c4[C@]13CCN(C)C2C5 | 6.60 |
| C/C=C1\C[C@@]23Cc4c([nH]c5ccccc45)[C@@H]1[C@@]21CCN(C)C3Cc2ccc(OC)c(O)c21 | 6.91 |
| COc1ccc2c(c1O)[C@]13CCN(C)C(C2)[C@]12CCC(=O)[C@H]3/C(=C(\C)c1ccccc1)C2 | 8.34 |

target: T3, Kappa-type opioid receptor; test: Binding affinity in recombinant human Opioid receptor kappa 1 transfected into chinese hamster ovary cells by displacing [3H]U-69593 radioligand; format: cell-based

| SMILES | pKi |
| --- | --- |
| COc1ccc2c(c1O)[C@]13CCN(C)C(C2)[C@@]12C/C(=C\c1ccccc1)[C@@H]3c1[nH]c3ccccc3c1C2 | 7.46 |
| CC(C)=CC[C@@]12Cc3c([nH]c4ccccc34)[C@]3(C)Oc4c(O)ccc5c4[C@]13CCN(C)C2C5 | 6.36 |
| C/C=C1\C[C@@]23Cc4c([nH]c5ccccc45)[C@@H]1[C@@]21CCN(C)C3Cc2ccc(OC)c(O)c21 | 6.62 |
| COc1ccc2c(c1O)[C@]13CCN(C)C(C2)[C@]12CCC(=O)[C@H]3/C(=C(\C)c1ccccc1)C2 | 9.85 |

target: Opioid receptors; delta & kappa (Homo sapiens, UniProt P41145+P41143); test: Ratio of kappa/delta-opioid receptors Binding affinity; format: protein assay

| SMILES | Ki |
| --- | --- |
| COc1ccc2c(c1O)[C@]13CCN(C)C(C2)[C@@]12C/C(=C\c1ccccc1)[C@@H]3c1[nH]c3ccccc3c1C2 | 2.2 |
| CC(C)=CC[C@@]12Cc3c([nH]c4ccccc34)[C@]3(C)Oc4c(O)ccc5c4[C@]13CCN(C)C2C5 | 8.6 |
| C/C=C1\C[C@@]23Cc4c([nH]c5ccccc45)[C@@H]1[C@@]21CCN(C)C3Cc2ccc(OC)c(O)c21 | 2.9 |
| COc1ccc2c(c1O)[C@]13CCN(C)C(C2)[C@]12CCC(=O)[C@H]3/C(=C(\C)c1ccccc1)C2 | 0.02 |

target: T2, Mu-type opioid receptor; test: Effective concentration agonistic activity towards Opioid receptor mu 1; format: functional

| SMILES | pEC50 |
| --- | --- |
| COc1ccc2c(c1O)[C@]13CCN(C)C(C2)[C@@]12C/C(=C\c1ccccc1)[C@@H]3c1[nH]c3ccccc3c1C2 | 7.35 |
| CC(C)=CC[C@@]12Cc3c([nH]c4ccccc34)[C@]3(C)Oc4c(O)ccc5c4[C@]13CCN(C)C2C5 | 5.92 |
| C/C=C1\C[C@@]23Cc4c([nH]c5ccccc45)[C@@H]1[C@@]21CCN(C)C3Cc2ccc(OC)c(O)c21 | 5.78 |
| COc1ccc2c(c1O)[C@]13CCN(C)C(C2)[C@]12CCC(=O)[C@H]3/C(=C(\C)c1ccccc1)C2 | 7.82 |

target: T3, Kappa-type opioid receptor; test: Agonistic activity towards Opioid receptor kappa 1; format: functional

| SMILES | pEC50 |
| --- | --- |
| COc1ccc2c(c1O)[C@]13CCN(C)C(C2)[C@@]12C/C(=C\c1ccccc1)[C@@H]3c1[nH]c3ccccc3c1C2 | 6.49 |
| CC(C)=CC[C@@]12Cc3c([nH]c4ccccc34)[C@]3(C)Oc4c(O)ccc5c4[C@]13CCN(C)C2C5 | 6.02 |
| COc1ccc2c(c1O)[C@]13CCN(C)C(C2)[C@]12CCC(=O)[C@H]3/C(=C(\C)c1ccccc1)C2 | 8.47 |

target: T1, Delta-type opioid receptor; test: Binding affinity for human Opioid receptor delta 1 transfected into chinese hamster ovary cells by displacing [3H]CI-DPDPE radioligand; format: cell-based

| SMILES | pKi |
| --- | --- |
| COc1ccc2c(c1O)[C@]13CCN(C)C(C2)[C@@]12C/C(=C\c1ccccc1)[C@@H]3c1[nH]c3ccccc3c1C2 | 7.80 |
| CC(C)=CC[C@@]12Cc3c([nH]c4ccccc34)[C@]3(C)Oc4c(O)ccc5c4[C@]13CCN(C)C2C5 | 7.29 |
| C/C=C1\C[C@@]23Cc4c([nH]c5ccccc45)[C@@H]1[C@@]21CCN(C)C3Cc2ccc(OC)c(O)c21 | 7.08 |
| COc1ccc2c(c1O)[C@]13CCN(C)C(C2)[C@]12CCC(=O)[C@H]3/C(=C(\C)c1ccccc1)C2 | 8.25 |
